{
  "source": "patent US20090264342A1",
  "about": "“COMPOSITIONS AND METHODS FOR ANTIBIOTIC POTENTIATION AND DRUG DISCOVERY” (priority 2006, published 2009)",
  "origin": "cited, not measured here",
  "test_system": "Streptomyces pneumoniae",
  "conditions": "more active than ciprofloxacin against this pathogen; cited from earlier work",
  "data": [
    {"smiles": "CO/N=C1\\CN(c2nc3c(cc2F)c(=O)c(C(=O)O)cn3C2CC2)CC1CN", "note": "(stereo not shown) [Gemifloxacin]", "values": [
      {"measurement": "activity relative to ciprofloxacin", "result": 30, "unit": "fold"}
    ]}
  ]
}
